Test results published in patent publication US20240398805A1, “QUINAZOLINE DERIVED COMPOUNDS AS EGFR INHIBITORS AND THEIR USES THEREOF” (ACCUTAR BIOTECHNOLOGY INC., priority 2021, published 2024).

Key:
Type in all cases: cell-based
HCC827 cells = test: Cell growth inhibition (CellTiter-Glo, 3 days) in HCC827; details: Homo sapiens, 72 h, 3 days after administration
Summary of the method: (§1)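 HCC827 cells were plated at 5000 cells/well in RPMI with 10% FBS, and A431 cells at the same density in DMEM with 10% FBS. After overnight attachment, compounds were added at various concentrations. Luminescence was recorded after plates were equilibrated to room temperature and incubated 10 min with reagent.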

[1] = tested on: HCC827-SVD cells (human EGFR exon 20 insertion mutant D770_N771 insSVD); test: Cell growth inhibition (CellTiter-Glo, 3 days) in HCC827-SVD; details: 72 h, 3 days after administration
Summary of the method: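 HCC827 cells carrying lentiviral codon-optimized EGFR D770_N771 insSVD, with endogenous EGFR knocked out by CRISPR (single clone), seeded at 5000 cells/well in RPMI with 10% FBS. Viability read by CellTiter-Glo luminescence.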

[2] = tested on: HCC827-ASV cells (human EGFR exon 20 insertion mutant A769_D770insASV); test: Cell growth inhibition (CellTiter-Glo, 3 days) in HCC827-ASV; details: 72 h, 3 days after administration
Summary of the method: (§2)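 Growth inhibition used a CellTiter-Glo luminescence read-out after 3 days of compound exposure at various concentrations. Cells were plated the day before at 5000/well in RPMI plus 10% FBS. The lines are HCC827 transduced by lentivirus with codon-optimized EGFR ASV or ERBB2 YVMA exon 20 insertions.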

A431 cells = test: Cell growth inhibition (CellTiter-Glo, 3 days) in A431; details: Homo sapiens, A-431, 72 h, 3 days after administration
Summary of the method: as §1

[3] = tested on: HCC827-YVMA cells (human ERBB2 exon20 insertion mutant A775_G776ins YVMA); test: Cell growth inhibition (CellTiter-Glo, 3 days) in HCC827-YVMA; details: 72 h, 3 days after administration
Summary of the method: as §2

| SMILES | GI50 (HCC827 cells) [nM] | GI50 [1] [nM] | GI50 [2] [nM] | GI50 (A431 cells) [nM] | GI50 [3] [nM] |
| --- | --- | --- | --- | --- | --- |
| C=CC(=O)N1CCC(Nc2cc3c(Nc4ccc(Oc5ccnc(N6CCO[C@@H](C)C6)c5)cc4F)ncnc3cc2OC)CC1 [Example 132, (S)-1-(4-((4-((2-fluoro-4-((2-(2-methylmorpholino)pyridin-4-yl)oxy)phenyl)amino)-7-methoxyquinazolin-6-yl)amino)piperidin-1-yl)prop-2-en-1-one] | 100 to 300 | < 30 | < 30 | 600 to 1000 | < 30 |
| C=CC(=O)N1CCC(Nc2cc3c(Nc4ccc(Oc5ccnc(N6CC7CC7C6)c5)cc4F)ncnc3cc2OC)CC1 (centres unmarked) [Example 199, 1-(4-((4-((4-((2-(3-azabicyclo[3.1.0]hexan-3-yl)pyridin-4-yl)oxy)-2-fluorophenyl)amino)-7-methoxyquinazolin-6-yl)amino)piperidin-1-yl)prop-2-en-1-one] | 100 to 300 | < 30 | < 30 | 60 to 100 | < 30 |
| C=CC(=O)N1CCC(Nc2cc3c(Nc4ccc(Oc5ccn(-c6cnc(C)c(OC)c6)n5)cc4F)ncnc3cc2OC)CC1 [Example 38, 1-(4-((4-((2-fluoro-4-((1-(5-methoxy-6-methylpyridin-3-yl)-1H-pyrazol-3-yl)oxy)phenyl)amino)-7-methoxyquinazolin-6-yl)amino)piperidin-1-yl)prop-2-en-1-one] | 100 to 300 | 30 to 60 | 30 to 60 | 30 to 60 | 30 to 60 |
| C=CC(=O)N1CCC(Nc2cc3c(Nc4ccc(Oc5ccnc(-c6ccncc6)c5)cc4F)ncnc3cc2OC)CC1 [Example 238, 1-(4-((4-((4-([2,4′-bipyridin]-4-yloxy)-2-fluorophenyl)amino)-7-methoxyquinazolin-6-yl)amino)piperidin-1-yl)prop-2-en-1-one] | 100 to 300 | < 30 | < 30 | ≥ 1000 | < 30 |
| C=CC(=O)N1CCC(Nc2cc3c(Nc4ccc(Oc5ccnc(N6CCCC(F)(F)C6)c5)cc4F)ncnc3cc2OC)CC1 [Example 219, 1-(4-((4-((4-((2-(3,3-difluoropiperidin-1-yl)pyridin-4-yl)oxy)-2-fluorophenyl)amino)-7-methoxyquinazolin-6-yl)amino)piperidin-1-yl)prop-2-en-1-one] | 100 to 300 | < 30 | < 30 | 300 to 600 | < 30 |
| C=CC(=O)N1CC2(CC(Oc3cc4c(Nc5ccc(Oc6ccn(-c7cnc(OC)nc7)n6)cc5F)ncnc4cc3OC)C2)C1 [Compound 79, 1-(6-((4-((2-fluoro-4-((1-(2-methoxypyrimidin-5-yl)-1H-pyrazol-3-yl)oxy)phenyl)amino)-7-methoxyquinazolin-6-yl)oxy)-2-azaspiro [3.3]heptan-2-yl) prop-2-en-1-one] | ≥ 1000 | ≥ 1000 | ≥ 1000 | ≥ 1000 | ≥ 1000 |
| C=CC(=O)N1CCC(Nc2cc3c(Nc4ccc(Oc5ccn(-c6cc(F)c(C)cn6)n5)cc4F)ncnc3cc2OC)CC1 [Compound 15, 1-(4-((4-((2-fluoro-4-((1-(4-fluoro-5-methylpyridin-2-yl)-1H-pyrazol-3-yl)oxy)phenyl)amino)-7-methoxyquinazolin-6-yl)amino)piperidin-1-yl)prop-2-en-1-one] | 100 to 300 | 100 to 300 | 100 to 300 | 100 to 300 | 60 to 100 |
| C=CC(=O)N1CCC(Nc2cc3c(Nc4ccc(Oc5ccn(-c6cnc(C)c(F)c6)n5)cc4F)ncnc3cc2OCC)CC1 [Compound 13, 1-(4-((7-ethoxy-4-((2-fluoro-4-((1-(5-fluoro-6-methylpyridin-3-yl)-1H-pyrazol-3-yl)oxy)phenyl)amino)quinazolin-6-yl)amino)piperidin-1-yl)prop-2-en-1-one] | < 30 | < 30 | < 30 | 300 to 600 | < 30 |
| C=CC(=O)N1CCC(Nc2cc3c(Nc4ccc(Oc5ccn(-c6cnc(C)c(C)c6)n5)cc4F)ncnc3cc2OC)CC1 [Example 36, 1-(4-((4-((4-((1-(5,6-dimethylpyridin-3-yl)-1H-pyrazol-3-yl)oxy)-2-fluorophenyl)amino)-7-methoxyquinazolin-6-yl)amino)piperidin-1-yl)prop-2-en-1-one] | 60 to 100 | 30 to 60 | 60 to 100 | 30 to 60 | 60 to 100 |
| C=CC(=O)N1CCC(Nc2cc3c(Nc4ccc(Oc5ccnc(N6CCC(C)(O)C6)c5)cc4F)ncnc3cc2OC)CC1 (centres unmarked) [Example 149, 1-(4-((4-((2-fluoro-4-((2-(3-hydroxy-3-methylpyrrolidin-1-yl)pyridin-4-yl)oxy)phenyl)amino)-7-methoxyquinazolin-6-yl)amino)piperidin-1-yl)prop-2-en-1-one] | 100 to 300 | 30 to 60 | 30 to 60 | 100 to 300 | 60 to 100 |
| C=CC(=O)N1CCC(Nc2cc3c(Nc4ccc(Oc5ccn(-c6ccc(C)nc6)n5)cc4F)ncnc3cc2OC)CC1 [Compound 3, 1-(4-((4-((2-fluoro-4-((1-(6-methylpyridin-3-yl)-1H-pyrazol-3-yl)oxy)phenyl)amino)-7-methoxyquinazolin-6-yl)amino)piperidin-1-yl)prop-2-en-1-one] | 300 to 600 | 60 to 100 | 30 to 60 | 100 to 300 | 30 to 60 |
| C=CC(=O)N1CCC(Nc2cc3c(Nc4ccc(Oc5nc(-c6cnc(OCC)nc6)cs5)cc4F)ncnc3cc2OC)CC1 [Example 28, 1-(4-((4-((4-((4-(2-ethoxypyrimidin-5-yl)thiazol-2-yl)oxy)-2-fluorophenyl)amino)-7-methoxyquinazolin-6-yl)amino)piperidin-1-yl)prop-2-en-1-one] | 100 to 300 | 30 to 60 | < 30 | 100 to 300 | 30 to 60 |
| C=CC(=O)N1CCC(Oc2cc3c(Nc4ccc(Oc5cc(N6C[C@@H](C)O[C@@H](C)C6)ncc5Cl)cc4F)ncnc3cc2OC)CC1 [Example 166, 1-(4-((4-((4-((5-chloro-2-((2R,6S)-2,6-dimethylmorpholino)pyridin-4-yl)oxy)-2-fluorophenyl)amino)-7-methoxyquinazolin-6-yl)oxy)piperidin-1-yl)prop-2-en-1-one] | 300 to 600 | ≥ 1000 | 100 to 300 | ≥ 1000 | 300 to 600 |
| C=CC(=O)N1CCC(Oc2cc3c(Nc4ccc(Oc5ccnc(N6C[C@H]7COC[C@H]7C6)c5)cc4F)ncnc3cc2OC)CC1 [Compound 165, 1-(4-((4-((2-fluoro-4-((2-((3aR,6aS)-tetrahydro-1H-furo[3,4-c]pyrrol-5(3H)-yl)pyridin-4-yl)oxy)phenyl)amino)-7-methoxyquinazolin-6-yl)oxy)piperidin-1-yl)prop-2-en-1-one] | 300 to 600 | < 30 | < 30 | ≥ 1000 | 30 to 60 |
| C=CC(=O)N1CCC(Nc2cc3c(Nc4ccc(Oc5ccnc(N6CCCCC6)c5)cc4F)ncnc3cc2OC)CC1 [Compound 100, 1-(4-((4-((2-fluoro-4-((2-(piperidin-1-yl)pyridin-4-yl)oxy)phenyl)amino)-7-methoxyquinazolin-6-yl)amino)piperidin-1-yl)prop-2-en-1-one] | 100 to 300 | 100 to 300 | 100 to 300 | 300 to 600 | 100 to 300 |
| C=CC(=O)N1CCC(Nc2cc3c(Nc4ccc(Oc5ccnc(N6C[C@H](OC)[C@H](OC)C6)c5)cc4F)ncnc3cc2OC)CC1 [Example 189, 1-(4-((4-((4-((2-((3R,4S)-3,4-dimethoxypyrrolidin-1-yl)pyridin-4-yl)oxy)-2-fluorophenyl)amino)-7-methoxyquinazolin-6-yl)amino)piperidin-1-yl)prop-2-en-1-one] | 300 to 600 | < 30 | < 30 | ≥ 1000 | < 30 |
| C=CC(=O)N1CCC(Nc2cc3c(Nc4ccc(Oc5ccnc(N(CCOC)CCOC)c5)cc4F)ncnc3cc2OC)CC1 [Example 117, 1-(4-((4-((4-((2-(bis(2-methoxyethyl)amino)pyridin-4-yl)oxy)-2-fluorophenyl)amino)-7-methoxyquinazolin-6-yl)amino)piperidin-1-yl)prop-2-en-1-one] | 300 to 600 | 100 to 300 | 100 to 300 | ≥ 1000 | 60 to 100 |
| C=CC(=O)N1CCC(Nc2cc3c(Nc4ccc(Oc5ccnc(N6CC[C@@H](C)C6)c5)cc4F)ncnc3cc2OC)CC1 [Example 197, (R)-1-(4-((4-((2-fluoro-4-((2-(3-methylpyrrolidin-1-yl)pyridin-4-yl)oxy)phenyl)amino)-7-methoxyquinazolin-6-yl)amino)piperidin-1-yl)prop-2-en-1-one] | 60 to 100 | < 30 | < 30 | 300 to 600 | < 30 |
| C=CC(=O)N1CCC(Nc2cc3c(Nc4ccc(Oc5ccnc(N6CCNCC6)c5)cc4F)ncnc3cc2OC)CC1 [Example 123, 1-(4-((4-((2-fluoro-4-((2-(piperazin-1-yl)pyridin-4-yl)oxy)phenyl)amino)-7-methoxyquinazolin-6-yl)amino)piperidin-1-yl)prop-2-en-1-one] | ≥ 1000 | 300 to 600 | 300 to 600 | ≥ 1000 | 600 to 1000 |
